# Measured values taken from patent EP4810508A1, “ARABINOSE DERIVATIVE COMPOUND, AND COMPOSITION COMPRISING SAME FOR PREVENTING OR TREATING DEGENERATIVE BRAIN DISEASES” (Digmbio. Inc., priority 2023, dated 2025).
# Where two headings read alike, the source gives them in different places.
# How the values were obtained:
# HRE/Luc/HEK293 cells = assay: HRE (Hypoxia Response Element) luciferase assay; format: cell-based, human; conditions: Homo sapiens, HEK293, 18 h, Table 2 (Examples 37-74, 52)
# In short: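 HRE-luciferase HEK293 cells in MEM/10% FBS pretreated with compound 6 h, then held under hypoxia (0.1% O2) 18 h; luminescence read after lysis. Scored as fold increase over vehicle, with twofold threshold at 100, 10 or 1 µM.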
# male ICR mice [1] = assay: Scopolamine-induced cognitive impairment model: Y-maze test; format: in vivo; conditions: for percent recovery of cognitive function (Y-maze) at 50 mg/kg: Mus musculus, po, 168 h
# Excerpt: (§1) A memory loss rodent animal model induced by scopolamine intraperitoneal administration is used, and an evaluation method for memory uses a Y-maze test and a passive avoidance test (PAT). Scopolamine is a representative experimental model showing an impairment of cognitive function similar to AD patients by blocking neurotransmitters when administered to an animal as an antagonist of a muscarinic acetylcholine receptor, and as a cognitive function evaluation technique, a Y-maze test and a passive avoidance experiment, which are general and representative methods, were used, and in order to objectify the efficacy levels of the compounds, a group administered with donepezil (Aricept, Eisa) as a positive control material was separately provided to compare the efficacy levels of the compounds.
# (§2) In order to evaluate cognitive function, 5-week-old male ICR mice were used, the compounds to be evaluated were prepared at a dose of 50 mg/kg/ml and repeatedly orally administered at a predetermined time for 7 days, and the positive control material was carried out at 5 mg/kg/ml. After the last administration, after 30 minutes of intraperitoneal administration of 1 mg/kg/2 ml of scopolamine, a Y-maze test and a passive avoidance test, which are cognitive function evaluations, were performed.
# The Y-maze test is a method for evaluating the ability to sequentially act as an experiment for measuring short-term memory. The measurement equipment is composed of three branches, each branch has a length of 42 cm, a width of 3 cm, and a height of 12 cm, and an angle at which three branches are folded is 120°. Experimental animals are put into each branch for 8 minutes, and the number of times of entering the branches to the tail of the experimental animal and the case of being sequentially received in each branch are scored (actual alternation). The alternation behavior is defined as entering not to overlap all three, and is calculated by the following equation. [formula]
# male ICR mice [2] = assay: Scopolamine-induced cognitive impairment model: passive avoidance test (PAT); format: in vivo
# Excerpt: as §1, §2
# In addition, the passive avoidance test was conducted using an avoidance learning box (Jeondo B&P, Korea, Seoul), and the avoidance learning box is divided into a dark room and a bright room, and when a laboratory animal is put into a bright room, the subject goes beyond the dark room. At the moment, an electric shock of 0.5 mA is applied for 5 seconds, and when the next day experimental animal is put back into a bright room, an electric shock in a dark room is memorized and stay in a bright room. In this case, a step-through latency is measured to evaluate memory. The efficacy of the compounds of the present invention against the normal group and the control group in the Y-maze test and the passive avoidance test was described in the following Table 3 (Scopolamine-induced cognitive impairment model result).
smiles,measurement,setting,value
"CC(C)c1ccc(Oc2ccc(O[C@H]3OC[C@@H](O)[C@H](O)[C@H]3O)cc2)cc1 [Example 56, (2R,3R,4S,5R)-2-(4-(4-isopropylphenoxy)phenoxy)tetrahydro-2H-pyran-3,4,5-triol]",fold induction at 10 µM,"HRE/Luc/HEK293 cells; 10uM, read-out: HKt-increasing 10uM",2.7
same,fold induction at 100 µM,"HRE/Luc/HEK293 cells; 100uM, read-out: HKt-increasing 100uM",1.4
same,percent recovery of cognitive function (Y-maze) at 50 mg/kg,"male ICR mice [1]; read-out: cognitive function recovery compared to normal animals, Y-maze experiment (effect %)",≥ 50%
same,percent recovery of cognitive function (Y-maze) at 50 mg/kg,male ICR mice [1]; read-out: in vivo(effect) Y-maze (%),64%
same,in vivo Y-maze (%),"male ICR mice [1]; spontaneous alternation, scopolamine 1 mg/kg i.p., compounds 50 mg/kg oral for 7 days, donepezil 5 mg/kg (avg.)",61.8%
same,"percent recovery of memory in passive avoidance test (normal group = 100, scopolamine control = 0) at 50 mg/kg","male ICR mice [2]; Mus musculus, po, 168 h, read-out: in vivo(effect) PAT (%)",81%
same,"cognitive function recovery compared to normal animals, passive avoidance test (effect %)","male ICR mice [2]; compounds 50 mg/kg, donepezil 5 mg/kg, orally for 7 days, scopolamine 1 mg/kg intraperitoneal",≥ 50%
same,in vivo PAT,"male ICR mice [2]; time staying in bright room (step-through latency), scopolamine 1 mg/kg i.p., compounds 50 mg/kg oral for 7 days, donepezil 5 mg/kg (avg.)",217.3 s
